Patent US7396837B2, “Antitumoral analogs of lamellarins” (Pharma Mar, S.A.U., priority 2002, dated 2008)
Where two headings read alike, the source gives them in different places.

Legend:
Type in all cases: cell-based
K-562 = assay: SRB colorimetric cell growth inhibition assay, K-562; details: Homo sapiens, K562, K-562; for GI50: GI=growth inhibition, read-out: GI50 K-562; for CC50: cell killing (cytotoxic effect), read-out: LC50 K-562; for IC (TGI): total growth inhibition (cytostatic effect), read-out: TGI K-562
Excerpt: (§1) The finality of these assays is to interrupt the growth of an “in vitro” tumor cell culture by means a continued exhibition of the cells to the sample to be testing.
(§2) A colorimetric type of assay, using sulforhodamine B (SRB) reaction has been adapted for a quantitative measurement of cell growth and viability (following the technique described by P. A. Skehan, et al., J. Natl. Cancer Inst. 1990, 82, 1107-1112).
(§3) This form of assay employs 96 well cell culture microplates of 9 mm diameter (T. Mosmann et al., J. of Immunological Methods 1983, 65, 55-63; G. T. Faircloth et al., J. of Tissue and Culture Methods 1988, 11, 201-205).
(§4) Most of the cell lines are obtained from American Type Culture Collection (ATCC) derived from different human cancer types.
(§5) The values for mean +/− SD of data from triplicate wells are calculated. Some parameters for cellular responses can be calculated: GI=growth inhibition, TGI=total growth inhibition (cytostatic effect) and LC=cell killing (cytotoxic effect).

A-549 = assay: SRB colorimetric cell growth inhibition assay, A-549; details: Homo sapiens, A549, A-549; for GI50: GI=growth inhibition, read-out: GI50 A-549; for CC50: cell killing (cytotoxic effect), read-out: LC50 A-549; for IC (TGI): total growth inhibition (cytostatic effect), read-out: TGI A-549
Excerpt: as §1, §2, §3, §4, §5

SK-MEL-28 = assay: SRB colorimetric cell growth inhibition assay, SK-MEL-28; details: Homo sapiens, SK-MEL-28, MEL-28; for GI50: GI=growth inhibition, read-out: GI50 MEL-28; for CC50: cell killing (cytotoxic effect), read-out: LC50 MEL-28; for IC (TGI): total growth inhibition (cytostatic effect), read-out: TGI MEL-28
Excerpt: as §1, §2, §3, §4, §5

HT-29 = assay: SRB colorimetric cell growth inhibition assay, HT-29; details: Homo sapiens; for GI50: GI=growth inhibition, read-out: GI50 HT-29; for CC50: cell killing (cytotoxic effect), read-out: LC50 HT-29; for IC (TGI): total growth inhibition (cytostatic effect), read-out: TGI HT-29
Excerpt: as §1, §2, §3, §4, §5

LoVo = assay: SRB colorimetric cell growth inhibition assay, LoVo; details: Homo sapiens; for GI50: GI=growth inhibition, read-out: GI50 LOVO; for CC50: cell killing (cytotoxic effect), read-out: LC50 LOVO; for IC (TGI): total growth inhibition (cytostatic effect), read-out: TGI LOVO
Excerpt: as §1, §2, §3, §4, §5

LoVo-Dox = assay: SRB colorimetric cell growth inhibition assay, LoVo-Dox (MDR); details: Homo sapiens, LOVO-DOX; for GI50: GI=growth inhibition, read-out: GI50 LOVO-DOX; for CC50: cell killing (cytotoxic effect), read-out: LC50 LOVO-DOX; for IC (TGI): total growth inhibition (cytostatic effect), read-out: TGI LOVO-DOX
Excerpt: as §1, §2, §3, §4, §5

DU-145 = assay: SRB colorimetric cell growth inhibition assay, DU-145; details: Homo sapiens; for GI50: GI=growth inhibition, read-out: GI50 DU-145; for CC50: cell killing (cytotoxic effect), read-out: LC50 DU-145; for IC (TGI): total growth inhibition (cytostatic effect), read-out: TGI DU-145
Excerpt: as §1, §2, §3, §4, §5

LNCaP = assay: SRB colorimetric cell growth inhibition assay, LNCaP; details: Homo sapiens, LNCaP, LN-caP; for GI50: GI=growth inhibition, read-out: GI50 LN-caP; for CC50: cell killing (cytotoxic effect), read-out: LC50 LN-caP; for IC (TGI): total growth inhibition (cytostatic effect), read-out: TGI LN-caP
Excerpt: as §1, §2, §3, §4, §5

IGROV = assay: SRB colorimetric cell growth inhibition assay, IGROV
Excerpt: as §1, §2, §3, §4, §5

IGROV-ET = assay: SRB colorimetric cell growth inhibition assay, IGROV-ET (ET-743 resistant); details: Homo sapiens, IGROV-ET; for GI50: GI=growth inhibition, read-out: GI50 IGROV-ET; for CC50: cell killing (cytotoxic effect), read-out: LC50 IGROV-ET; for IC (TGI): total growth inhibition (cytostatic effect), read-out: TGI IGROV-ET
Excerpt: as §1, §2, §3, §4, §5

HeLa = assay: SRB colorimetric cell growth inhibition assay, HeLa; details: Homo sapiens, HeLa; for GI50: read-out: GI50 HELA; for CC50: read-out: LC50 HELA; for IC (TGI): read-out: TGI HELA
Excerpt: as §1, §2, §3, §4, §5

HeLa-APL = assay: SRB colorimetric cell growth inhibition assay, HeLa-APL (aplidine resistant); details: Homo sapiens; for GI50: read-out: GI50 HELA-APL; for CC50: read-out: LC50 HELA-APL; for IC (TGI): read-out: TGI HELA-APL
Excerpt: as §1, §2, §3, §4, §5

PANC-1 = assay: SRB colorimetric cell growth inhibition assay, PANC-1; details: Homo sapiens; for GI50: GI=growth inhibition, read-out: GI50 PANC-1; for CC50: cell killing (cytotoxic effect), read-out: LC50 PANC-1; for IC (TGI): total growth inhibition (cytostatic effect), read-out: TGI PANC-1
Excerpt: as §1, §2, §3, §4, §5

SK-BR-3 = assay: SRB colorimetric cell growth inhibition assay, SK-BR-3; details: Homo sapiens; for GI50: GI=growth inhibition, read-out: GI50 SK-BR-3; for CC50: cell killing (cytotoxic effect), read-out: LC50 SK-BR-3; for IC (TGI): total growth inhibition (cytostatic effect), read-out: TGI SK-BR-3
Excerpt: as §1, §2, §3, §4, §5

[1] = Homo sapiens, IGROV; GI=growth inhibition; read-out: GI50 IGROV
[2] = Homo sapiens, IGROV; cell killing (cytotoxic effect); read-out: LC50 IGROV
[3] = Homo sapiens, IGROV; total growth inhibition (cytostatic effect); read-out: TGI IGROV
[4] = cell killing (cytotoxic effect)
[5] = total growth inhibition (cytostatic effect)
[6] = HELA-APL, cell killing (cytotoxic effect)
[7] = HELA-APL, total growth inhibition (cytostatic effect)

## COc1cc2c(cc1O)oc(=O)c1c2c(-c2ccc(OC)c(OC)c2)c2c3cc(OC)c(O)cc3ccn21 [Compound 233]
K-562
  GI50: 0.0958 µM
  CC50: 8.61 µM
  IC (TGI): 1.09 µM
A-549
  GI50: 0.312 µM
  CC50: 19.5 µM
  IC (TGI): 2.06 µM
SK-MEL-28
  GI50: 0.169 µM
  CC50: 19.5 µM
  IC (TGI): 4.75 µM
HT-29; HT-29, HT-29
  GI50: 19.5 µM
  CC50: 19.5 µM
  IC (TGI): 19.5 µM
LoVo; LoVo
  GI50: 0.545 µM
  CC50: 19.5 µM
  IC (TGI): 1.31 µM
LoVo-Dox
  GI50: 1.05 µM
  CC50: 19.5 µM
  IC (TGI): 15.4 µM
DU-145; DU-145, DU-145
  GI50: 0.0783 µM
  CC50: 19.5 µM
  IC (TGI): 0.18 µM
LNCaP
  GI50: 0.126 µM
  CC50: 3.72 µM
  IC (TGI): 0.557 µM
IGROV; [1]
  GI50: 0.0499 µM
IGROV; [2]
  CC50: 19.5 µM
IGROV; [3]
  IC (TGI): 0.142 µM
IGROV-ET
  GI50: 0.107 µM
  CC50: 19.5 µM
  IC (TGI): 0.721 µM
HeLa; GI=growth inhibition
  GI50: 0.191 µM
HeLa; [4]
  CC50: 16 µM
HeLa; [5]
  IC (TGI): 3.82 µM
HeLa-APL; HELA-APL, GI=growth inhibition
  GI50: 0.417 µM
HeLa-APL; [6]
  CC50: 14.3 µM
HeLa-APL; [7]
  IC (TGI): 3.15 µM
PANC-1; PANC-1, PANC-1
  GI50: 0.341 µM
  CC50: 19.5 µM
  IC (TGI): 19.5 µM

## COc1cc(-c2c3n(c4c(=O)[nH]c5cc(O)c(OC)cc5c24)CCc2cc(O)c(OC)cc2-3)ccc1O [Compound 4]
K-562
  GI50: 0.396 µM
  CC50: 4.44 µM
  IC (TGI): 0.937 µM
A-549
  GI50: 0.543 µM
  CC50: 10 µM
  IC (TGI): 1.21 µM
HT-29; HT-29, HT-29
  GI50: 2.5 µM
  CC50: 14.6 µM
  IC (TGI): 6.03 µM
LoVo; LoVo
  GI50: 0.468 µM
  CC50: 4.36 µM
  IC (TGI): 1.08 µM
LoVo-Dox
  GI50: 2 µM
  CC50: 17.8 µM
  IC (TGI): 5.95 µM
DU-145; DU-145, DU-145
  GI50: 0.218 µM
  CC50: 2.14 µM
  IC (TGI): 0.667 µM
LNCaP
  GI50: 0.332 µM
  CC50: 1.85 µM
  IC (TGI): 0.785 µM
SK-BR-3; SK-BR-3, SK-BR-3
  GI50: 0.338 µM
  CC50: 1.47 µM
  IC (TGI): 0.703 µM
IGROV; [1]
  GI50: 0.402 µM
IGROV; [2]
  CC50: 11.3 µM
IGROV; [3]
  IC (TGI): 2 µM
IGROV-ET
  GI50: 0.599 µM
  CC50: 13.1 µM
  IC (TGI): 1.64 µM
HeLa; GI=growth inhibition
  GI50: 0.338 µM
HeLa; [4]
  CC50: 1.39 µM
HeLa; [5]
  IC (TGI): 0.685 µM
HeLa-APL; HELA-APL, GI=growth inhibition
  GI50: 0.238 µM
HeLa-APL; [6]
  CC50: 1.95 µM
HeLa-APL; [7]
  IC (TGI): 0.681 µM
PANC-1; PANC-1, PANC-1
  GI50: 0.48 µM
  CC50: 5.99 µM
  IC (TGI): 1.34 µM

## CC[C@H](C)[C@H](NC(=O)OC(C)(C)C)C(=O)Oc1ccc(-c2c3c4cc(OC)c(OC(=O)[C@@H](NC(=O)OC(C)(C)C)[C@@H](C)CC)cc4oc(=O)c3n3ccc4cc(OC(=O)[C@@H](NC(=O)OC(C)(C)C)[C@@H](C)CC)c(OC)cc4c23)cc1OC [Compound 208]
A-549
  GI50: 8.78 µM
  CC50: 8.78 µM
  IC (TGI): 8.78 µM
SK-MEL-28
  GI50: 8.78 µM
  CC50: 8.78 µM
  IC (TGI): 8.78 µM
HT-29; HT-29, HT-29
  CC50: 8.78 µM
HT-29; HT-29
  GI50: 8.78 µM
  IC (TGI): 8.78 µM
LoVo; LoVo
  CC50: 8.78 µM
LoVo; LOVO
  GI50: 8.78 µM
  IC (TGI): 8.78 µM
LoVo-Dox
  GI50: 8.78 µM
  CC50: 8.78 µM
  IC (TGI): 8.78 µM
DU-145; DU-145, DU-145
  CC50: 8.78 µM
DU-145; DU-145
  GI50: 8.78 µM
  IC (TGI): 8.78 µM
LNCaP
  GI50: 1.46 µM
  CC50: 5.83 µM
  IC (TGI): 2.91 µM
SK-BR-3; SK-BR-3, SK-BR-3
  CC50: 8.78 µM
SK-BR-3; SK-BR-3
  GI50: 5.01 µM
  IC (TGI): 7.97 µM
IGROV; [2]
  CC50: 8.78 µM
IGROV; Homo sapiens; IGROV; GI=growth inhibition; read-out: GI50 IGROV
  GI50: 8.78 µM
IGROV; Homo sapiens; IGROV; total growth inhibition (cytostatic effect); read-out: TGI IGROV
  IC (TGI): 8.78 µM
IGROV-ET
  GI50: 8.78 µM
  CC50: 8.78 µM
  IC (TGI): 8.78 µM
HeLa
  GI50: 0.208 µM
  CC50: 2.31 µM
  IC (TGI): 0.618 µM
HeLa-APL
  GI50: 0.154 µM
  CC50: 1.14 µM
  IC (TGI): 0.385 µM
PANC-1; PANC-1, PANC-1
  CC50: 8.78 µM
  IC (TGI): 8.78 µM
PANC-1; PANC-1
  GI50: 5.92 µM
